The values below are quoted from earlier work in publication PMC9880028 (Drug Design, Development and Therapy, 2023).

pIC50: −log10 of the molar value.

The subject of the series is WNK1. The note with it: read-out: IC50 (WNK1); only WNK1 inhibitor published when the screen was conducted; ref US Patent application US 2008/0286809 A1, Dario Alessi.

Usually pIC50 stands for the IC50 on a negative log10 scale, so that one unit is a factor of ten. Regarding `Cc1cc(O)c2c(=O)c3c(O)cc(O)c4c5c(O)cc(O)c6c(=O)c7c(O)cc(C)c8c1c2c(c34)c(c78)c65` [hypericin], the pIC50 was 3.70.
